Drawing on patent publication US12466840B2, “Small molecule inhibitors of KRAS proteins” (Merck Sharp & Dohme LLC, priority 2023, dated 2025), this text covers IC50 for 7 compounds.

The target of assay [1] is KRAS G12D (Homo sapiens (Human), UniProt P01116, G12D). In words: SOS-catalyzed nucleotide exchange assay (GNE), KRAS G12D. Format: biochemical. The conditions noted are these: TR-FRET, 60 min preincubation. An excerpt: (§1) Procedure for SOS-Catalyzed Nucleotide Exchange Assay for KRAS-WT, G12C/D/V/A/R/S, G13D, Q61H, HRAS-WT, and NRAS-WT
Sequence of KRAS G12D (P01116 other isoform, or with tags, fused parts or gaps G12D (already in the parent)): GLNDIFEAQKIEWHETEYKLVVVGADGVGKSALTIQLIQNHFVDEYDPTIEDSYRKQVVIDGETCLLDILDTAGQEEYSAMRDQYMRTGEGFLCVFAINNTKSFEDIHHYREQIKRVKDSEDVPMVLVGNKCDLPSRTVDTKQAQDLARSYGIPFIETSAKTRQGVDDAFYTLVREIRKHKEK
(§2) Recombinant KRAS-G12C protein used in this assay has an additional triple mutation (C51S/C80L/C118S). Whereas KRAS-WT, G12D/V/A/S/R, G13D, Q61H, HRAS and NRAS are in context of their WT protein sequence background. Specifically, the SOS-catalyzed nucleotide exchange assay utilizes a preformed TR-FRET complex containing a specific biotinylated RAS protein (KRAS-WT, G12C/V/D/A/S/R, G13D, Q61H, HRAS-WT, NRAS-WT; described above) with Bodipy-GDP, and Terbium-streptavidin. Compounds are preincubated with this complex for 60 minutes. Subsequently, recombinant human SOS protein and unlabeled GTP are added to initiate the exchange reaction. Small molecule inhibitors stabilize the Bodipy-GDP complex whereas the untreated protein rapidly exchanges Bodipy-GDP for unlabeled GTP resulting in reduced TR-FRET signal.
(§3) To assemble the preformed TR-FRET complexes, each biotinylated RAS protein is diluted to 2 μM in an EDTA Buffer (20 mM HEPES pH 7.5, 50 mM sodium chloride, 10 mM EDTA, and 0.01% Tween) and incubated at room temperature for one hour. This mixture is then further diluted to 90 nM in an Assay Buffer (20 mM HEPES pH 7.5, 150 mM sodium chloride, 10 mM magnesium chloride, and 0.005% Tween) containing 15 nM of Terbium-Streptavidin (Invitrogen, catalog #PV3577) and 900 nM of Bodipy-GDP (Invitrogen, catalog #G22360) and incubated at room temperature for six hours. It should be noted that this preformed TR-FRET complex for each of the RAS protein were made ahead of time, aliquoted and stored at −80° C. until the day of the experiment.
(§4) Each test compound (10 mM stock in DMSO) is diluted in DMSO to make a final-10-point, 3-fold dilution and is acoustically dispensed into a 384-well assay plate (Corning, catalog #3820) using an Echo 550 (Labcyte). Each well of the assay plate receives 3 μL of a specific 3×RAS preformed TR-FRET complex and 3 μL of Assay Buffer and is incubated at room temperature for 60 minutes (preincubation time). Each well then receives 3 μL of 3× recombinant human SOS protein and GTP (Sigma, G8877) in Assay Buffer and is incubated at room temperature for 30 minutes (G13D), 60 minutes (KRAS WT/G12C/D, H/NRAS) or 90 minutes for G12A/R/S/V and Q61H. The final reaction in each well of 9 μL consists of 3 mM GTP, specific Ras and SOS proteins in the following concentrations: KRAS-G12C/SOS=3 nM/40 nM, KRAS-WT and G12D/SOS=1 nM/40 nM, KRAS-G12V/SOS=1.25 nM/160 nM, KRAS-G12A/S/SOS=1 nM/160 nM, KRAS-G12R/SOS=1 nM/320 nM, KRAS-Q61H/SOS=1 nM/320 nM, KRAS-G13D/SOS=1.25 nM/[…], HRAS-WT and NRAS-WT=1.25 nM/40 nM.
(§5) The time-resolved fluorescence resonance energy transfer (TR-FRET) signal is measured on an Envision (PerkinElmer) plate reader: Excitation filter=340 nm; emission1=495 nm; emission2=520 nm; dichroic mirror=D400/D505; delay time=[…]. The signal of each well is determined as the ratio of the emission at 520 nm to that at 495 nm. Percent effect of each well is determined after normalization to control wells containing DMSO (no effect) or a saturating concentration of inhibitor (max effect). The apparent effect as a function of compound concentration is fit to a four-parameter logistic equation.

Assay [2] has as its target KRAS G12V (Homo sapiens (Human), UniProt P01116, G12V). In words: SOS-catalyzed nucleotide exchange assay (GNE), KRAS G12V. In kind it is biochemical. The note with it: TR-FRET, 60 min preincubation.
Excerpt: as §1, §2, §3, §4, §5
For orientation: In TR-FRET formats the signal depends on donor and acceptor labels being close together.

The target in assay [3] is KRAS G12A (Homo sapiens (Human), UniProt P01116, G12A). As to the kind of experiment: SOS-catalyzed nucleotide exchange assay (GNE), KRAS G12A. Format: biochemical. The note with it: TR-FRET, 60 min preincubation.
Sequence of KRAS G12A (P01116 other isoform, or with tags, fused parts or gaps G12A (already in the parent)): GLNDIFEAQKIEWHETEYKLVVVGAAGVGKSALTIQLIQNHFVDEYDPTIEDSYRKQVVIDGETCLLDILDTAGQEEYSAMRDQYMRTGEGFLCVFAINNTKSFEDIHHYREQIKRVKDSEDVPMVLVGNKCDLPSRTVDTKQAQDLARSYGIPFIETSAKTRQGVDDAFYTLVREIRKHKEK
Excerpt: as §1, §2, §3, §4, §5

In assay [4] the test system is SW620 cells (homozygous KRAS-G12V). In words: Cellular phospho-ERK assay, SW620 cells. Format: cell-based. The note with it: p-ERK vs. total ERK, read-out: SW620 pERK IC50. How it is done: Procedure for Cellular Phospho-ERK Assay in KRAS Wild Type and Mutant (G12D, G12V) Cell Lines
MKN-1 cells (JCRB JCRB0252) containing amplified wild-type KRAS, were cultured in growth medium that contains RPMI 1640-GlutaMAX™-I (ThermoFisher Scientific 61870) containing 10% heat inactivated fetal bovine serum (ThermoFisher Scientific 10091148), 1 mM sodium pyruvate and 10 mM HEPES. AsPC-1 cells (ATCC® CRL-1682™), containing homozygous KRAS-G12D activating mutation, were cultured in T150 flask in growth medium (RPMI medium 1640-GlutaMAX™-I (ThermoFisher Scientific 61870) containing 10% fetal bovine serum (ThermoFisher Scientific 10091148)). SW620 cells (ATCC® CRL-227™) containing homozygous KRAS-G12V activating mutation, were cultured in growth medium that contains RPMI 1640-GlutaMAX™-I (ThermoFisher Scientific 61870) containing 10% heat inactivated fetal bovine serum (ThermoFisher Scientific 10091148).
Cells for the assay were harvested in growth medium after TrypLE (ThermoFisher scientific 12604021) digestion and were seeded in a 384-well collagen coated cell culture plate (Corning 356702) at a density of 10,000-15,000 cells/[…]/well, and incubated at 37° C., 5% CO2 overnight. The compound (with 10 mM stock concentration) dose-response titrations were prepared [30 μM final ERK detection assay concentration and 1:3 dilutions, 10-point dose response] and appropriate amounts (270 nL) of test compounds were dispensed in a 384-well intermediate plate using an Echo 550 liquid handler. 30 μL/well of RPMI medium 1640-GlutaMAX™-I was added to the intermediate plate and the contents of the intermediate plate (10 μL/well) were then transferred to the 384-well collagen coated cell culture plate, which was incubated at 37° C., 5% CO2 for 2 h. After removal of medium from the collagen coated cell culture plate, cells were lysed in lysis buffer from Alpha SureFire® Ultra™ Multiplex p-ERK and total ERK assay kit (PerkinElmer MPSU-PTERK) containing Halt™ Protease and Phosphatase inhibitor cocktail (ThermoFisher Scientific 78446) at room temperature with constant shaking at 300 rpm for 30 minutes. The cell lysates were then transferred to an OptiPlate-384 plate (PerkinElmer 6005620), and the phosphorylation of ERK (p-ERK) and total ERK levels were detected by Alpha SureFire® Ultra™ Multiplex p-EEK kit and total ERK assay kit (PerkinElmer MPSU-PTERK) following the manufacturer's protocol. Assay plates were read on a EnVision Multimode Plate Reader (PerkinElmer), and the ratio of p-ERK vs. total ERK in each well was used as the final readout. Dose response curves were analyzed using a 4-parameter logistic model to calculate IC50 values using Spotfire software.

Like-named read-outs stand apart in the source and are kept apart here.

Sequence of KRAS G12V (P01116 other isoform, or with tags, fused parts or gaps G12V (already in the parent)): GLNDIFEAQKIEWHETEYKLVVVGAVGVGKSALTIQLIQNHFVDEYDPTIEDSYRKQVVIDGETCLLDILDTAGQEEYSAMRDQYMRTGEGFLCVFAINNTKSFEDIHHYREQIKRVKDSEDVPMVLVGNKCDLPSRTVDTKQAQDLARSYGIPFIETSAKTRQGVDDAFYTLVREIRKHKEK

For orientation: IC50 means the point on the concentration scale where inhibition reaches its midpoint. As to `F/C=C1/CN2CCC[C@@]2(COc2nc3c4c(nc(-c5c(C6CC6)c(Cl)cc6[nH]ncc56)c(F)c4n2)OC[C@@H]2COCCCN32)C1` [Ex-1, (8aS)-5-(6-chloro-5-cyclopropyl-1H-indazol-4-yl)-4-fluoro-2-(((S,Z)-2-(fluoromethylene)tetrahydro-1H-pyrrolizin-7a(5H)-yl)methoxy)-8a,9,12,13-tetrahydro-8H,11H-7,10-dioxa-1,3,6,13a-tetraazanaphtho[1,8-ab]heptalene], the 50% inhibitory concentration (IC50) in assay [1] was 0.67 nM; in assay [2], 1.3 nM; in assay [3], under 0.69 nM; in assay [4] (2 h) it was 2.6 nM.
The like results for `CCc1c(F)ccc2cc3[nH]ncc3c(-c3nc4c5c(nc(OC[C@@]67CCCN6C[C@H](F)C7)nc5c3F)N3CCCOC[C@H]3CO4)c12` [Ex-2, (8aS)-5-(5-ethyl-6-fluoro-1H-benzo[f]indazol-4-yl)-4-fluoro-2-(((2R,7aS)-2-fluorotetrahydro-1H-pyrrolizin-7a(5H)-yl)methoxy)-8a,9,12,13-tetrahydro-8H,11H-7,10-dioxa-1,3,6,13a-tetraazanaphtho[1,8-ab]heptalene] were, in that order, 0.65 nM, 1.3 nM, under 0.69 nM and 2.4 nM.
As to `Fc1c(-c2c(C3CC3)c(Cl)cc3[nH]ncc23)nc2c3c(nc(OC[C@@]45CCCN4C[C@H](F)C5)nc13)N1CCCOC[C@H]1CO2` [Ex-3, (8aS)-5-(6-chloro-5-cyclopropyl-1H-indazol-4-yl)-4-fluoro-2-(((2R,7aS)-2-fluorotetrahydro-1H-pyrrolizin-7a(5H)-yl)methoxy)-8a,9,12,13-tetrahydro-8H,11H-7,10-dioxa-1,3,6,13a-tetraazanaphtho[1,8-ab]heptalene], the half-inhibitory concentration (IC50) in assay [1] stood at 1.3 nM; in assay [2], 3 nM; in assay [4] (Homo sapiens, SW-620, 2 h) it was 3.9 nM.
Take `CCc1c(F)ccc2cc3[nH]ncc3c(-c3nc4c5c(nc(OC[C@@]67CCCN6C/C(=C\F)C7)nc5c3F)N3CCCOC[C@H]3CO4)c12` [Ex-4, (8aS)-5-(5-ethyl-6-fluoro-1H-benzo[f]indazol-4-yl)-4-fluoro-2-(((S,Z)-2-(fluoromethylene)tetrahydro-1H-pyrrolizin-7a(5H)-yl)methoxy)-8a,9,12,13-tetrahydro-8H,11H-7,10-dioxa-1,3,6,13a-tetraazanaphtho[1,8-ab]heptalene]: the IC50 in assay [1] is under 0.69 nM; in assay [2], 0.83 nM; in assay [3] it was under 0.69 nM; in assay [4] (Homo sapiens, SW-620, 2 h), under 1.5 nM.
For the compound `F/C=C1\CN2CCC[C@@]2(COc2nc3c4c(nc(-c5c(C6(F)CC6)c(Cl)cc6[nH]ncc56)c(F)c4n2)OC[C@@H]2COCCCN32)C1` [Ex-5, (8aS)-5-(6-chloro-5-(1-fluorocyclopropyl)-1H-indazol-4-yl)-4-fluoro-2-(((S,Z)-2-(fluoromethylene)tetrahydro-1H-pyrrolizin-7a(5H)-yl)methoxy)-8a,9,12,13-tetrahydro-8H,11H-7,10-dioxa-1,3,6,13a-tetraazanaphtho[1,8-ab]heptalene], the concentration for half-maximal inhibition (IC50) in assay [1] was under 0.69 nM; in assay [2], 0.98 nM; in assay [3] it was 0.83 nM; in assay [4] (Homo sapiens, SW-620, 2 h) it was 1.3 nM.
`CCc1c(F)ccc2cc3[nH]nc(C)c3c(-c3nc4c5c(nc(OC[C@@]67CCCN6C[C@H](F)C7)nc5c3F)N3CCCOC[C@H]3CO4)c12` [Ex-6, (8aS)-5-(5-ethyl-6-fluoro-3-methyl-1H-benzo[f]indazol-4-yl)-4-fluoro-2-(((2R,7aS)-2-fluorotetrahydro-1H-pyrrolizin-7a(5H)-yl)methoxy)-8a,9,12,13-tetrahydro-8H,11H-7,10-dioxa-1,3,6,13a-tetraazanaphtho[1,8-ab]heptalene]: the half-maximal inhibitory concentration (IC50) in assay [1] turned out to be 1.3 nM; in assay [2], 1.5 nM; in assay [3], 1 nM; in assay [4] (Homo sapiens, SW-620, 2 h), 3.4 nM.
On to `CCc1c(F)ccc2cc3[nH]nc(C)c3c(-c3nc4c5c(nc(OC[C@@]67CCCN6C/C(=C\F)C7)nc5c3F)N3CCCOC[C@H]3CO4)c12` [Ex-7, (8aS)-5-(5-ethyl-6-fluoro-3-methyl-1H-benzo[f]indazol-4-yl)-4-fluoro-2-(((S,Z)-2-(fluoromethylene)tetrahydro-1H-pyrrolizin-7a(5H)-yl)methoxy)-8a,9,12,13-tetrahydro-8H,11H-7,10-dioxa-1,3,6,13a-tetraazanaphtho[1,8-ab]heptalene], for which the IC50 in assay [1] came to 1.4 nM; in assay [2], 2.8 nM; in assay [3] it was 1.3 nM; in assay [4] (2 h) it was 2.5 nM.
